{
  "source": "patent US9011933B2",
  "about": "“Therapeutic methods and pharmaceutical compositions for treating warts with tellurium compounds” (Biomas Ltd., priority 2004, dated 2015)",
  "origin": "cited, not measured here",
  "key": {"human viruses": {"test_system": "human viruses", "details": "studies conducted heretofore"}, "[1]": {"details": "rats; intravenous and intramuscular dosage"}},
  "note": "Where two headings read alike, the source gives them in different places.",
  "data": [
    {"molecule": "N#N", "note": "[liquid nitrogen]", "values": [
      {"measurement": "patients remaining clear of warts", "setting": "warts; after a median of 19 months", "value": 57, "unit": "%"},
      {"measurement": "initial cure, patients", "setting": "warts; liquid nitrogen treatment of warts", "value": "52-83%"}
    ]},
    {"molecule": "Cl[TeH]1(Cl)(Cl)OCCO1", "note": "[AS101, ammonium trichloro(dioxyethylene-O,O′)tellurate]", "values": [
      {"measurement": "efficacy as an anti-viral agent against human viruses", "setting": "human viruses", "value": "insufficient"},
      {"measurement": "LD50 relative to the immunology effective dose", "setting": "[1]", "value": "500-1000 folds"}
    ]},
    {"molecule": "O=C(O)C(Cl)(Cl)Cl", "note": "[trichloro acetic acid]", "values": [
      {"measurement": "cure rate", "setting": "warts; typical result of treatment", "value": "64-81%"}
    ]},
    {"molecule": "bleomycine", "values": [
      {"measurement": "success rate", "setting": "warts; intralesional therapy", "value": "~70", "unit": "%"}
    ]},
    {"molecule": "O=C(O)c1ccccc1O", "note": "[salicylic acid]", "values": [
      {"measurement": "cure rate", "setting": "warts; topical standard treatment, after 4 weeks, at best", "value": "≤ 40", "unit": "%"}
    ]}
  ]
}
